Among the data in patent publication US10414769B2, “5,8-dimethyl-9-phenyl-5,8-dihydro-6H-pyrazolo[3,4-h]quinazolin-2-yl)-(1H-pyrazol-3-yl)-amines as IGF-1R/IR inhibitors” (Boehringer Ingelheim International GmbH, priority 2015, dated 2019) are inhibition and EC50 values, retold here.

In one assay the target is T1, FGFR1 (Homo sapiens, UniProt P11362).
T1 construct: purchased Life Technologies PV 3146
Description: Z'-LYTE kinase selectivity assay FGFR1. It is filed as biochemical. The text has this: (§1) In order to compare the kinase selectivity of compounds (I) according to the invention with known prior art compounds the commercially provided SelectScreen® Kinase Profiling Service (Z′-LYTE®) was used (Life Technologies GmbH, Darmstadt, Germany) to investigate the ability of the compounds to inhibit a number of different, representatively selected human kinases. Further details regarding this service are available on the Life Technologies website at
(§2) The Z′-LYTE® biochemical assay employs a fluorescence-based, coupled-enzyme format and is based on the differential sensitivity of phosphorylated and non-phosphorylated peptides to proteolytic cleavage. The peptide substrate is labeled with two fluorophores—one at each end—that make up a FRET pair.
(§3) In the primary reaction, the kinase transfers the gamma-phosphate of ATP to a single tyrosine, serine or threonine residue in a synthetic FRET-peptide. In the secondary reaction, a site-specific protease recognizes and cleaves non-phosphorylated FRET-peptides. Phosphorylation of FRET-peptides suppresses cleavage by the Development Reagent. Cleavage disrupts FRET between the donor (i.e., coumarin) and acceptor (i.e., fluorescein) fluorophores on the FRET-peptide, whereas uncleaved, phosphorylated FRET-peptides maintain FRET. A ratiometric method, which calculates the ratio (the Emission Ratio) of donor emission to acceptor emission after excitation of the donor fluorophore at 400 nm, is used to quantitate reaction progress, as shown in the equation below.
(§4) The Test Compounds are screened at 1 μM.
The 2×FGFR1 (# PV 3146)/Tyr 04 (Z′-LYTE® Kinase Assay Kit—Tyrosine 4 Peptide, # PV 3193) mixture is prepared in 50 mM HEPES pH 7.5, 0.01% BRIJ-35, 10 mM MgCl2, 4 mM MnCl2, 1 mM EGTA, 2 mM DTT. The final 10 μL Kinase Reaction consists of 0.44-2.45 ng FGFR1 and 2 μM Tyr 04 in 50 mM HEPES pH 7.5, 0.01% BRIJ-35, 10 mM MgCl2, 2 mM MnCl2, 1 mM EGTA, 1 mM DTT. After the 1 hour Kinase Reaction incubation, 5 μL of a 1:64 dilution of Development Reagent B is added.

Another assay deals with T2, PRKACA (PKA) (Homo sapiens, UniProt P17612).
T2 construct: purchased Life Technologies P 2912
Description: Z'-LYTE kinase selectivity assay PRKACA. It is filed as biochemical.
Excerpt: as §1, §2, §3, §4
The 2×PRKACA (PKA) (# P 2912)/Ser/Thr 01 (Z′-LYTE® Kinase Assay Kit—Ser/Thr 1 Peptide, # PV 3174) mixture is prepared in 50 mM HEPES pH 7.5, 0.01% BRIJ-35, 10 mM MgCl2, 1 mM EGTA. The final 10 μL Kinase Reaction consists of 0.03-0.15 ng PRKACA (PKA) and 2 μM Ser/Thr 01 in 50 mM HEPES pH 7.5, 0.01% BRIJ-35, 10 mM MgCl2, 1 mM EGTA. After the 1 hour Kinase Reaction incubation, 5 μL of a 1:4096 dilution of Development Reagent A is added.

The target in another assay is T3, MAPKAPK2 (Homo sapiens, UniProt P49137).
T3 construct: purchased Life Technologies PV 3317
Description: Z'-LYTE kinase selectivity assay MAPKAPK2. In kind it is biochemical.
Excerpt: as §1, §2, §3, §4
The 2×MAPKAPK2 (# PV 3317)/Ser/Thr 04 (Z′-LYTE® Kinase Assay Kit—Ser/Thr 4 Peptide, # PV 3177) mixture is prepared in 50 mM HEPES pH 7.5, 0.01% BRIJ-35, 10 mM MgCl2, 1 mM EGTA. The final 10 μL Kinase Reaction consists of 0.04-0.18 ng MAPKAPK2 and 2 μM Ser/Thr 04 in 50 mM HEPES pH 7.5, 0.01% BRIJ-35, 10 mM MgCl2, 1 mM EGTA. After the 1 hour Kinase Reaction incubation, 5 μL of a 1:1024 dilution of Development Reagent A is added.

In assay [1] the test system is TC-71 (EWING'S sarcoma) cells. Description: Cell proliferation assay TC-71 (Alamar Blue). It is filed as cell-based. The note with it: anti-proliferative effect, TC-71 cells, 72 h; read-out: TC71 EC50. As for the experimental part: Cell Proliferation Assays
Compounds were tested for their anti-proliferative effects in the TC-71 (EWING'S sarcoma) and HCT 116 (colorectal carcinoma) cancer cell lines in vitro. Published scientific data has described that interference with the IGF-1R signaling pathway reduces the proliferation of TC-71 cells (Manara et al, 2007). Therefore TC-71 cells served as a positive control cell line for monitoring the activity of compounds against IGF-1R-mediated cell proliferation. […] Therefore the HCT 116 cell line served as a negative control.
2000 TC-71 cells or 1000 HCT 116 cells were seeded per well in 180 μL IMDM+10% foetal calf serum (FCS)+penicillin/streptomycin into 96-well microtitre plates. The plates were placed in a cell culture incubator (37° C. in a humidified atmosphere of […]/5% CO2) overnight. The following day, serial dilutions of compounds, prepared in duplicates, were transferred onto the cell layers (controls without compound). The cells were cultivated for a further 72 h in the cell culture incubator. 20 μL of Alamar Blue™ (Serotec Ltd, Dusseldorf, Germany) was added to each well and the plates incubated for 7 h in the cell culture incubator. Fluorescence (extinction wavelength of 544 nm and emission at 590 nm) was then measured and the normalized data fitted by iterative calculation with a sigmoidal curve analysis program (Graph Pad Prism) with a variable Hill slope to determine the EC50 values.

The next assay concerns the target T4, AMPK A1/B1/G1 (Homo sapiens, UniProt Q13131).
T4 construct: purchased Life Technologies PV 4672
In words: Z'-LYTE kinase selectivity assay AMPK A1/B1/G1. It is filed as biochemical. The following applies: read-out: AMPK A1B1G1 % inhibition.
Excerpt: as §1, §2, §3, §4
The 2×AMPK A1/B1/G1 (# PV 4672)/Ser/Thr 23 (Z′-LYTE® Kinase Assay Kit—Ser/Thr 23 Peptide, # PV 4644) mixture is prepared in 50 mM HEPES pH 7.5, 0.01% BRIJ-35, 10 mM MgCl2, 1 mM EGTA. The final 10 μL Kinase Reaction consists of 0.43-2.86 ng AMPK A1/B1/G1 and 2 μM Ser/Thr 23 in 50 mM HEPES pH 7.5, 0.01% BRIJ-35, 10 mM MgCl2, 1 mM EGTA. After the 1 hour Kinase Reaction incubation, 5 μL of a 1:4096 dilution of Development Reagent A is added.

T1 sequence (P11362 22-822): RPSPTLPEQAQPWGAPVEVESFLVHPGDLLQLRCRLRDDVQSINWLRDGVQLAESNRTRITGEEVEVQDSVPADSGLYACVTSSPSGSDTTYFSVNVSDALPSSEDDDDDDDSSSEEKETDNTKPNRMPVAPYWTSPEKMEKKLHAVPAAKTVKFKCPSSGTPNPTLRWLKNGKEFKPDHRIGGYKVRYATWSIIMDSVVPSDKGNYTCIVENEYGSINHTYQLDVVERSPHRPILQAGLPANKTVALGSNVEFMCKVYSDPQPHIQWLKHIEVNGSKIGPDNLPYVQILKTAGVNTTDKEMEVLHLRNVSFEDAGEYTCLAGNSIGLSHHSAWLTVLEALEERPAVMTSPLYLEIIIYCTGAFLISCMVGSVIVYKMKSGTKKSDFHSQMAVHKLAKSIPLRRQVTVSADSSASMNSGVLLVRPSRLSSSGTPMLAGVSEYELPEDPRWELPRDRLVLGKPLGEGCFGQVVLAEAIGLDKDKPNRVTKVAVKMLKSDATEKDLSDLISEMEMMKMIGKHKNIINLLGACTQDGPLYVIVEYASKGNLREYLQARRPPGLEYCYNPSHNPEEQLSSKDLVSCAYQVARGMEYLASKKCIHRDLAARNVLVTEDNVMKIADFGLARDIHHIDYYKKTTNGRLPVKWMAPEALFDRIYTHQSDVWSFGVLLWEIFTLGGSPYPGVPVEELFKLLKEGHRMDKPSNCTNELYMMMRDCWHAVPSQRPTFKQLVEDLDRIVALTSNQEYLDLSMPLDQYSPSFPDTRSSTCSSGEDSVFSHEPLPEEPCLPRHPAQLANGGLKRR
T3 sequence (P49137 whole entry): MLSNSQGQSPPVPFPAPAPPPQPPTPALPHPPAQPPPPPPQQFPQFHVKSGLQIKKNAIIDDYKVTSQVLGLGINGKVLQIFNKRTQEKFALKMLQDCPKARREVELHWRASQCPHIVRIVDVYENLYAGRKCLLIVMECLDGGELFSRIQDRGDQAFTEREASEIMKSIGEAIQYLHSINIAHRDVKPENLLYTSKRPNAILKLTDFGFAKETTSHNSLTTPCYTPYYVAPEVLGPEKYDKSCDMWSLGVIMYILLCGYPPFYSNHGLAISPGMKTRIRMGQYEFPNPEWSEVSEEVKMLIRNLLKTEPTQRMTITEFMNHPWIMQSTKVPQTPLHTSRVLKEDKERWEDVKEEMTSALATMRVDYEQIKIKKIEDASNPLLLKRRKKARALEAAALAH
T4 sequence (Q13131 whole entry): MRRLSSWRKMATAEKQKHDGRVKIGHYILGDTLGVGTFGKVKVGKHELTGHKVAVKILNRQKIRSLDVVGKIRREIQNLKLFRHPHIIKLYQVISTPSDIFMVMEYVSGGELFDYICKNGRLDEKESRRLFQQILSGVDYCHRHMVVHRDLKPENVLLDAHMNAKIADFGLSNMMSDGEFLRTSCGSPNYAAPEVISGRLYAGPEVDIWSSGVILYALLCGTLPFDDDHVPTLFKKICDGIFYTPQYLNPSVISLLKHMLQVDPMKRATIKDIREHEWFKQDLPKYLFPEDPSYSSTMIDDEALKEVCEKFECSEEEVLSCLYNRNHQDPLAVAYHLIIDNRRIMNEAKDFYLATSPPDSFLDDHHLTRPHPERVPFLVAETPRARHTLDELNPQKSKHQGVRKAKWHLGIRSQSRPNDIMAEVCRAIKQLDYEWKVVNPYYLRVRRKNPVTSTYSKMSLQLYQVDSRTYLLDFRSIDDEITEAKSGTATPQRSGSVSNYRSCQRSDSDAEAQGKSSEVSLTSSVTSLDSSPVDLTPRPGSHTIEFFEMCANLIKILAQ
T4 sequence (Q9Y478 whole entry partner): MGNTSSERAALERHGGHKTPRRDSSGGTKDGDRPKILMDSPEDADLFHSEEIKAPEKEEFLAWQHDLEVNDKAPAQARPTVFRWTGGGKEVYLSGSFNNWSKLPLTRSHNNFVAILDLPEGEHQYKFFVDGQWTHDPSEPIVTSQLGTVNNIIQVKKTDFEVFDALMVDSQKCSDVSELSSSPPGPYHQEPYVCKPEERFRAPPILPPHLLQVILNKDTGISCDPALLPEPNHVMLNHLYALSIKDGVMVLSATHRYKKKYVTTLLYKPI
T4 sequence (P54619 whole entry partner): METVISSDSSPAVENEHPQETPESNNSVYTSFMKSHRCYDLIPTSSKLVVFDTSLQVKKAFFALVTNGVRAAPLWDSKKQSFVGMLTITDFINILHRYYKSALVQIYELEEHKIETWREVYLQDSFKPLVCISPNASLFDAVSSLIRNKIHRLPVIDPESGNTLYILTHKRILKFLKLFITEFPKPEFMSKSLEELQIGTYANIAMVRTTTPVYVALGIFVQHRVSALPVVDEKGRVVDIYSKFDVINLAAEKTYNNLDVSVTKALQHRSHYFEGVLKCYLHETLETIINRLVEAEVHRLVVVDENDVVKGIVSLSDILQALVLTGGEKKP

What is called inhibition is the change of the read-out against control, counted positive when it falls. What is called EC50 is the concentration that produces a half-maximal response. With `C[C@@H]1Cc2nn(C)c(-c3ccccc3)c2-c2nc(Nc3ccn(CCN4CCN(C)CC4)n3)ncc21` [Compound I-1], the inhibition at 1 µM at FGFR1 was 30%; on PRKACA (PKA), -5%; on MAPKAPK2 it was -3%; at AMPK A1/B1/G1 it was 36%. Further, the EC50 in assay [1] was found to be 2.62 nM.
Taken in the same sequence, the figures for `COCCN1CCN(CCn2ccc(Nc3ncc4c(n3)-c3c(nn(C)c3-c3ccccc3)C[C@H]4C)n2)CC1` [Compound I-11] were 28%, -3%, -2%, 28% and 3.74 nM.
With `C[C@@H]1Cc2nn(C)c(-c3ccccc3)c2-c2nc(Nc3ccn(CCN4CCOCC4)n3)ncc21` [Compound I-2], the inhibition at 1 µM against FGFR1 was determined as 40%; on PRKACA (PKA) it was 22%; against MAPKAPK2 it was 1%; on AMPK A1/B1/G1, 34%. Moreover, in assay [1], the EC50 was found to be 2.35 nM.
Taken in the same sequence, the figures for `C[C@@H]1Cc2nn(C)c(-c3ccccc3)c2-c2nc(Nc3ccn(CCN4CCN(CC(C)(C)O)CC4)n3)ncc21` [Compound I-3] were 34%, 13%, 2%, 43% and 2.67 nM.
Turning to `C[C@@H]1Cc2nn(C)c(-c3ccccc3)c2-c2nc(Nc3ccn(CCN4CCN(CC5CCCO5)CC4)n3)ncc21` (some centres unmarked) [Compound I-9], the inhibition at 1 µM stood at 32% against FGFR1, 17% against PRKACA (PKA), 3% at MAPKAPK2 and 35% at AMPK A1/B1/G1. Also, in assay [1], the EC50 amounted to 5.43 nM.
On the same counts, the results for `CC(O)CN1CCN(CCn2ccc(Nc3ncc4c(n3)-c3c(nn(C)c3-c3ccccc3)C[C@H]4C)n2)CC1` (some centres unmarked) [Compound I-7] are 34%, 16%, 5%, 39% and 2.17 nM.
In the case of `C[C@@H]1Cc2nn(C)c(-c3ccccc3)c2-c2nc(Nc3ccn(CCN4CCN(CC(=O)OC5CCOCC5)CC4)n3)ncc21` [Compound I-8], the inhibition at 1 µM against FGFR1 stood at 29%; against PRKACA (PKA), 16%; against MAPKAPK2, 5%; at AMPK A1/B1/G1 it was 29%. The EC50 in assay [1] is 5.98 nM.
